Assay results taken from ChEMBL document CHEMBL6182935, “Discovery of a Novel Silybin Derivative for the Treatment of Metabolic Dysfunction-Associated Steatohepatitis” (J Med Chem, 2025).
Converted amounts (≈) assume the structure as drawn. The source made the active and inactive calls. The rule behind the calls is not given here.

Experiments:
[1] = Solubility in water incubated for 10 mins; assay type: physicochemical
[2] = Acute toxicity in male KM mouse assessed as abnormalities in animal at 2 g/kg, po administered as single dose measured after 2 weeks; assay type: organism-based; conditions: in vivo, 2000 mg/kg, 336 h
Mus musculus [3] = assay: Anti-MASH activity in HFD-fed CCl4-treated male C57BL/6 mouse assessed as reduction in hepatic triglyceride level at 150 mg/kg, po qd treated for 4 weeks by ELISA; assay type: functional, organism-based
L02 [4] = assay: Anti-MASH activity in palmitate/oleate-stimulated human LO2 cells assessed as reduction in SCD mRNA level at 10 to 40 uM incubated for 24 hrs by q-PCR analysis; assay type: functional, cell-based; conditions: dose 10-40 µM
Mus musculus [5] = assay: Anti-MASH activity in HFD-fed CCl4-treated male C57BL/6 mouse assessed as reduction in collagen I in liver at 150 mg/kg, po qd treated for 4 weeks by IHC analysis; assay type: functional, organism-based
Mus musculus [6] = assay: Anti-MASH activity in HFD-fed CCl4-treated male C57BL/6 mouse assessed as reduction in liver IL-6 level at 150 mg/kg, po qd treated for 4 weeks by ELISA; assay type: functional, organism-based
Rattus norvegicus [7] = assay: Hepatoprotective activity in male Sprague-Dawley rat model of CCl4-induced ALI assessed as reduction in dullness of liver margin at 100 mg/kg, IG qd pretreated with compound for 7 days followed by CCl4 administration after 2 hrs post-compound treatment measured after 16 hrs post-CCl4 injection; assay type: functional, organism-based; conditions: time 186.0 hrs
L02 [8] = assay: Anti-inflammatory activity in CCl4-stimulated human LO2 cells assessed as reduction in IL-6 mRNA level at 1 uM; assay type: functional, cell-based
L02 [9] = assay: Anti-MASH activity in palmitate/oleate-stimulated human LO2 cells assessed as reduction in lipid accumulation at 10 to 40 uM incubated for 24 hrs by Oil Red O staining assay; assay type: functional, cell-based; conditions: dose 10-40 µM
Mus musculus [10] = assay: Anti-MASH activity in HFD-fed CCl4-treated male C57BL/6 mouse assessed as reduction in hepatocyte ballooning in liver at 150 mg/kg, po qd treated for 4 weeks by H and E/Oil red O staining based analysis; assay type: functional, organism-based
[11] = Apparent volume of distribution during terminal phase in overnight-fasted male Sprague-Dawley rat at 150 mg/kg, po measured up to 12 hrs by HPLC analysis; assay type: ADME, organism-based; conditions: in vivo, read-out: Vz/F
Hepatocyte [12] = assay: Anti-MASH activity in palmitate/oleate-stimulated mouse primary hepatocytes assessed as reduction in ACACA mRNA level by q-PCR analysis; assay type: functional, cell-based
[13] = Toxicity in male Sprague-Dawley rat model of CCl4-induced ALI assessed as animal growth at 100 mg/kg, IG qd pretreated with compound for 7 days followed by CCl4 administration after 2 hrs post-compound treatment measured after 16 hrs post-CCl4 injection; assay type: organism-based; conditions: in vivo, po, 186 h
Rattus norvegicus [14] = assay: Hepatoprotective activity in male Sprague-Dawley rat model of CCl4-induced ALI assessed as reduction in yellowing of liver at 100 mg/kg, IG qd pretreated with compound for 7 days followed by CCl4 administration after 2 hrs post-compound treatment measured after 16 hrs post-CCl4 injection; assay type: functional, organism-based; conditions: time 186.0 hrs
LX-2 = assay: Anti-MASH activity in TGF-beta-activated-human LX2 cells assessed as reduction in collagen I level incubated for 48 hrs by Western blot analysis; assay type: functional, cell-based; conditions: dose 10-40 µM
[15] = Solubility in methanol incubated for 10 mins; assay type: physicochemical
Rattus norvegicus [16] = assay: Hepatoprotective activity in male Sprague-Dawley rat model of CCl4-induced ALI assessed as reduction in roughened surface in liver at 100 mg/kg, IG qd pretreated with compound for 7 days followed by CCl4 administration after 2 hrs post-compound treatment measured after 16 hrs post-CCl4 injection; assay type: functional, organism-based; conditions: time 186.0 hrs
[17] = AUC (0 to infinity) in overnight-fasted male Sprague-Dawley rat at 150 mg/kg, po measured up to 12 hrs by HPLC analysis; assay type: ADME, organism-based; conditions: in vivo
[18] = Apparent clearance during terminal phase in overnight-fasted male Sprague-Dawley rat at 150 mg/kg, po measured up to 12 hrs by HPLC analysis; assay type: ADME, organism-based; conditions: in vivo, read-out: CLz/F (converted)
[19] = Toxicity in male Sprague-Dawley rat model of CCl4-induced ALI assessed as body weight change at 100 mg/kg, IG qd pretreated with compound for 7 days followed by CCl4 administration after 2 hrs post-compound treatment measured after 16 hrs post-CCl4 injection; assay type: organism-based; conditions: in vivo, po, 186 h
L02 [20] = assay: Anti-MASH activity in palmitate/oleate-stimulated human LO2 cells assessed as reduction in FASN mRNA level at 10 to 40 uM incubated for 24 hrs by q-PCR analysis; assay type: functional, cell-based; conditions: dose 10-40 µM
Mus musculus [21] = assay: Anti-MASH activity in HFD-fed CCl4-treated male C57BL/6 mouse assessed as reduction in fat dyslipidemia at 150 mg/kg, po qd treated for 4 weeks; assay type: functional, organism-based
Hepatocyte [22] = assay: Anti-inflammatory activity in CCl4-stimulated mouse primary hepatocytes assessed as reduction in TNF-alpha mRNA level at 1 uM; assay type: functional, cell-based
Mus musculus [23] = assay: Anti-MASH activity in HFD-fed CCl4-treated male C57BL/6 mouse assessed as reduction in collagen deposition in liver at 150 mg/kg, po qd treated for 4 weeks by Masson staining based analysis; assay type: functional, organism-based
Mus musculus [24] = assay: Anti-MASH activity in HFD-fed CCl4-treated male C57BL/6 mouse assessed as reduction in serum triglyceride level at 150 mg/kg, po qd treated for 4 weeks; assay type: functional, organism-based
[25] = Acute toxicity in male KM mouse assessed as animal suvival at 2 g/kg, po administered as single dose measured after 2 weeks; assay type: organism-based; conditions: in vivo, 2000 mg/kg, 336 h
Mus musculus [26] = assay: Anti-MASH activity in HFD-fed CCl4-treated male C57BL/6 mouse assessed as restoration of liver SOD level at 150 mg/kg, po qd treated for 4 weeks; assay type: functional, organism-based
[27] = Antioxidant activity assessed as inhibition of superoxide anion scavenging activity incubated for 5 mins in presence of pyrogallol; assay type: functional
Rattus norvegicus [28] = assay: Hepatoprotective activity in male Sprague-Dawley rat model of CCl4-induced ALI assessed as restoration of SOD level at 100 mg/kg, IG qd pretreated with compound for 7 days followed by CCl4 administration after 2 hrs post-compound treatment measured after 16 hrs post-CCl4 injection; assay type: functional, organism-based; conditions: time 186.0 hrs
[29] = Solubility in ethyl acetate incubated for 10 mins; assay type: physicochemical
Mus musculus [30] = assay: Anti-MASH activity in HFD-fed CCl4-treated male C57BL/6 mouse assessed as restoration of serum ALT level at 150 mg/kg, po qd treated for 4 weeks; assay type: functional, organism-based
[31] = Terminal half life in overnight-fasted male Sprague-Dawley rat at 150 mg/kg, po measured up to 12 hrs by HPLC analysis; assay type: ADME, organism-based; conditions: in vivo, read-out: beta t1/2 (converted)
Mus musculus [32] = assay: Anti-MASH activity in HFD-fed CCl4-treated male C57BL/6 mouse assessed as reduction in liver TNF-alpha level at 150 mg/kg, po qd treated for 4 weeks by ELISA; assay type: functional, organism-based
Rattus norvegicus [33] = assay: Hepatoprotective activity in male Sprague-Dawley rat model of CCl4-induced ALI assessed as reduction in vacuoles at 100 mg/kg, IG qd pretreated with compound for 7 days followed by CCl4 administration after 2 hrs post-compound treatment measured after 16 hrs post-CCl4 injection by H and E staining based analysis; assay type: functional, organism-based; conditions: time 186.0 hrs

## COc1cc([C@@H]2Oc3cc([C@H]4Oc5cc(O)cc(O)c5C(=O)[C@@H]4O)ccc3OC2CS)ccc1O (some centres undefined)
[1]
  solubility at 10 min: 0.25 mg/mL (≈ 0.501 mM)
[2]
  Activity: Non-toxic
Mus musculus [3]
  Activity: Active; Activity Was More Significant Than Silybin
L02 [4]
  Activity: Active
Mus musculus [5]
  Activity: Active
Mus musculus [6]
  Activity: Active
Rattus norvegicus [7]
  Activity: Active
L02 [8]
  Activity: Active
L02 [9]
  Activity: Active
Mus musculus [10]
  Activity: Active; Activity Was Better Than Silybin
[11]
  Vd/F: 6.91 L
Hepatocyte [12]
  Activity: Active
[13]
  Activity: Non-toxic
Rattus norvegicus [14]
  Activity: Active
LX-2
  Activity: Dose-dependent-effect
[15]
  solubility: 913 mg/mL (≈ 1830 mM)
Rattus norvegicus [16]
  Activity: Active
[17]
  AUC(0-inf): 11600 ng·h/mL
[18]
  CL/F: 51.3 mL/min
[19]
  Activity: Non-toxic
L02 [20]
  Activity: Active
Mus musculus [21]
  Activity: Active
Hepatocyte [22]
  Activity: Active
Mus musculus [23]
  Activity: Active
Mus musculus [24]
  Activity: Active
[25]
  Activity: Non-toxic
Mus musculus [26]
  Activity: Active
[27]
  IC50: 28.1 µM
Rattus norvegicus [28]
  Activity: Active; Exhibited Better Efficacy Than Silybin
[29]
  solubility: > 1000 mg/mL
Mus musculus [30]
  Activity: Active; Activity Was Better Than Silybin
[31]
  half-life: 1.55 h
Mus musculus [32]
  Activity: Active
Rattus norvegicus [33]
  Activity: Active
